Laboratory results: US12377176B2, “Cancer diagnostic imaging agents” (Technische Universität München, priority 2019, dated 2025)
Where “and” joins values, the source holds several entries; their conditions need not be identical. Equal entries are not always repeated. Where two headings read alike, the source gives them in different places. Marks after values point to notes of the source that are not given here.

How the values were obtained:
LNCaP cells = experiment: Internalization into LNCaP cells, relative to ([125I]I-BA)KuE; type: cell-based
Experimental: Data is corrected for non-specific binding ([…]) and expressed as mean±SD (n=3).
Subsequent to the removal of the culture medium, the cells were washed once with 500 μL DMEM-F12 (5% BSA) and left to equilibrate for at least 15 min at 37° C. in 200 μL DMEM-F12 (5% BSA). Each well was treated with either 25 μL of either DMEM-F12 (5% BSA) or a 100 μM PMPA solution for blockade. Next, 25 μL of the ^68Ga/^18F-labeled PSMA inhibitor (5.0 nM) was added and the cells incubated at 37° C. for 60 min. The experiment was terminated by placing the 24-well plate on ice for 3 min and consecutive removal of the medium. Each well was rinsed with 250 μL HBSS and the fractions from these first two steps combined, representing the amount of free radioligand. Removal of surface bound activity was accomplished by incubation of the cells with 250 μL of ice-cold PMPA (10 μM in PBS) solution for 5 min and rinsed again with another 250 μL of ice-cold PBS. The internalized activity was determined by incubation of the cells in 250 μL 1 M NaOH and the combination with the fraction of a subsequent wash step with 250 μL 1.0 M NaOH. Each experiment (control and bloackde) was performed in triplicate. Free, surface bound and internalized activity was quantified in a γ-counter. […] Data were corrected for non-specific internalization and normalized to the specific-internalization observed for the radioiodinated reference compound.

[1] = Octanol-water partition coefficient (n-octanol/PBS pH 7.4); type: physicochemical
Experimental: Approximately 1 MBq of the labeled tracer was dissolved in 1 mL of a 1:1 mixture (by volumes) of phosphate buffered saline (PBS, pH 7.4) and n-octanol in an Eppendorf tube. After vigorous mixing of the suspension for 3 minutes at room temperature, the vial was centrifuged at 15000 g for 3 minutes (Biofuge 15, Heraus Sepatech, Osterode, Germany) and 100 μL aliquots of both layers were measured in a gamma counter. The experiment was repeated at least six times.
Determianation of the logP values was carried out in phosphate buffered saline (PBS, pH 7.4) and n-octanol (=logPoct/PBS).

PSMA = molecular target: T1, PSMA (Homo sapiens, UniProt Q04609); experiment: Determination of IC50: PSMA affinity, competition with ([125I]I-BA)KuE on LNCaP cells; type: binding; settings: LNCaP cells, [125I]IB-KuE 0.2 nM, 1 h, 4 °C
T1 construct: endogenous in cells; host or cells: LNCaP cells
T1 sequence (Q04609 whole entry): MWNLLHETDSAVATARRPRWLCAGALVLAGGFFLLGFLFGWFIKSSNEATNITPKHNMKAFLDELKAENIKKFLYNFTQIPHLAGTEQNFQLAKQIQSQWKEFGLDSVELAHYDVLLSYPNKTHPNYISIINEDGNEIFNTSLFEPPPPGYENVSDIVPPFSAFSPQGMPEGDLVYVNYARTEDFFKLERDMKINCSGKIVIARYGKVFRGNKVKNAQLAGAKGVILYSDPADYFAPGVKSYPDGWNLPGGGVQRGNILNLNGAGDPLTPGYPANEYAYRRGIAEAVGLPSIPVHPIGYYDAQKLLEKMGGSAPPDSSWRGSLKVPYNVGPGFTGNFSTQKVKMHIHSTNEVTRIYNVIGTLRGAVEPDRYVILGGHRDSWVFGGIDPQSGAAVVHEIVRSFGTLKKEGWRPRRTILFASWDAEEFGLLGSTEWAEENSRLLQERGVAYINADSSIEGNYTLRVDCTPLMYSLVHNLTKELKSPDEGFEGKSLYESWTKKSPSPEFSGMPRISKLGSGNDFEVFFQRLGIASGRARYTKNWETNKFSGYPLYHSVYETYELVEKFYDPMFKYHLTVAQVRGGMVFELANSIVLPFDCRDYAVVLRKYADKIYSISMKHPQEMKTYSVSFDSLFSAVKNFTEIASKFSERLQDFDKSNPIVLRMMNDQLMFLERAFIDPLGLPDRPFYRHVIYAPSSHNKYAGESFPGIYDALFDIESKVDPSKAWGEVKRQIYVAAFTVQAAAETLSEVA
Experimental: After removal of the culture medium, the cells were treated once with 500 μL of HBSS (Hank's balanced salt solution, Biochrom, Berlin, Germany, with addition of 1% bovine serum albumin (BSA)) and left 15 min on ice for equilibration in 200 μL HBSS (1% BSA). […] Quantification of bound and free radioligand was accomplished in a γ-counter.

[2] = In vivo distribution of rhPSMA-7 isomers after rhPSMA7-rac: radio-HPLC and radio-TLC of blood, organ and urine samples; design: species or system mice
Experimental: In order to quantify the relative uptake of each isomer (rhPSMA-7.1-7.4), a tumor-bearing male CB-17-SCID mouse was injected with the racemic mixture of rhPSMA-7 (180-280 MBq, SA=247-349 GBq/μmol, produced at the Klinikum rechts der Isar in a fully automated procedure). The animal was left under anesthesia for 30 min and sacrificed. Urine, blood, liver, kidneys and tumor were collected and processed to the hereafter described procedures. The urine sample was centrifuged for 5 min at 9000 rpm to yield a clear solution and directly subjected to radio-HPLC analysis. Blood was diluted to 1 mL with H2O and centrifuged twice at 13000 g for 5 min. The supernatant was collected and loaded on a Strata X cartridge (33 μm Polymeric Reversed Phase 500 mg, pre-conditioned with 5 mL MeOH, followed by 5 mL H2O). After washing with 5 mL H2O, the cartridge was eluted with a 6:4 mixture (v/v) of MeCN in H2O, supplemented with 1% TFA. The eluate was diluted with water and analysed by radio-HPLC. Tumour, kidneys and liver were homogenised using either a Potter-Elvehjem tissue grinder (Kontes Glass Co, Vineland, USA) or a MM-400 ball mill (Retsch GmbH, Haan, Germany).
Tumour and kidneys were separately homogenised in the tissue homogeniser with 1 mL of extraction buffer (850 μL 1 M HEPES pH7.4, 100 μL20 mM PMPA and 100 μL 1M NaCl) for 30 min. The resulting homogenate was collected and centrifuged at 13000 g for 5 min. Subsequently the supernatant was collected, centrifuged again (13000 g, 5 min) and loaded on a Strata X cartridge (33 μm Polymeric Reversed Phase 500 mg, pre-conditioned with 5 mL MeOH, followed by 5 mL H2O). After washing with 5 mL H2O, the cartridge was eluted with a 6:4 mixture (v/v) of MeCN in H2O, supplemented with 1% TFA. The eluate of each organ was diluted with water and analysed by radio-HPLC.
The organs (tumour, kidney, liver) were separately homogenised in a 2 mL tube together with 3 grinding balls (3 mm diameter) and 1 mL of extraction buffer (850 μL 1 M HEPES pH7.4, 100 μL 20 mM PMPA and 100 μL 1M NaCl) for 10 min at 30 Hz. The homogenate was centrifuged at 13000 g for 5 min and the supernatant was collected. Subsequently, the pellet was suspended in 1 mL of extraction buffer and homogenized again with the ball mill for 10 min at 30 Hz. After centrifugation (13000 g, 5 min), both supernatants were combined and loaded on a Strata X cartridge (33 μm Polymeric Reversed Phase 500 mg, pre-conditioned with 5 mL MeOH, followed by 5 mL H2O). After washing with 5 mL H2O, the cartridge was eluted with a 6:4 mixture (v/v) of MeCN in H2O, supplemented with 1% TFA. The eluate of each organ was diluted with water and analysed by radio-HPLC. […] Finally the ratios of the individual isomers were determined from the HPLC profiles of the extracted samples and compared to the ratios of the isomers from the quality control of the racemic mixture of rhPSMA-7. The decay corrected extraction- and cartridge loading-efficiency, as well as the overall extracted activity of the examined samples are given in table 2. The cartridge elution-efficiency was >99% for all experiments.
Radio-TLC Analysis was carried out a) on urine samples by directly subjecting a small volume onto a TLC strip, b) by analysis of a small volume of the non-immobilized activity during the SPE process (the ‘breakthrough fraction’), and c) by analysis of a small volume of the cartridge eluates.

[3] = Phosphoimager, Blood, 30 min p.i.
[4] = Phosphoimager, Kidney, 30 min p.i.
[5] = Phosphoimager, Tumor, 30 min p.i.
[6] = Phosphoimager, Urine, 30 min p.i., listed as [^18F]rhPSMA7-rac
[7] = TLC Scanner, Kidney, tumor bearing mice 30 min p.i., listed as [^18F]rhPSMA7-rac

| Molecule | internalization rate Mean (LNCaP cells; LNCaP cells, 1 h, 37 °C, c=0.5 nM, mean) | individual internalization rates (LNCaP cells; LNCaP cells, 1 h, 37 °C, c=0.5 nM, single measurements) | internalization (LNCaP cells; mean ± SD as quoted in the discussion) | logP ([1]; n-octanol/PBS, pH 7.4, octanol/PBS7.4, mean of individual measurements, read-out: log P Mean) | individual log P measurements ([1]; octanol/PBS7.4, single measurements) | IC50 (PSMA; HBSS+1% BSA, single measurements, read-out: individual IC50 measurements) | IC50 (PSMA; mean of the individual measurements, read-out: IC50 Mean) | Intact tracer [2, 3] | ^18F-Fluoride [2, 3] | Intact tracer [2, 4] | ^18F-Fluoride [2, 4] | Intact tracer ([2]; Phosphoimager, Liver, 30 min p.i., listed as [^18F]rhPSMA7-rac) | Intact tracer [2, 5] | ^18F-Fluoride [2, 5] | Intact tracer [2, 6] | ^18F-Fluoride [2, 6] | Intact tracer [2, 7] | ^18F-Fluoride [2, 7] | Intact tracer ([2]; TLC Scanner, Urine, tumor bearing mice 30 min p.i., listed as [^18F]rhPSMA7-rac) |
| --- | --- | --- | --- | --- | --- | --- | --- | --- | --- | --- | --- | --- | --- | --- | --- | --- | --- | --- | --- |
| CC(C)(C)[Si](F)(c1ccc(C(=O)NC[C@@H](NC(=O)CC[C@@H](C(=O)O)N2CCN(CC(=O)O)CCN(CC(=O)O)CCN(CC(=O)O)CC2)C(=O)N[C@H](CCCCNC(=O)CCC(=O)NCCC[C@@H](NC(=O)CC[C@H](NC(=O)N[C@@H](CCC(=O)O)C(=O)O)C(=O)O)C(=O)O)C(=O)O)cc1)C(C)(C)C [rhPSMA7.3, [^19F][^natGa]D-Dap-S-DOTAGA-rhPSMA7, metal not drawn] | 161.41 % of [^125I]IB-KuE | 156.6 % of [^125I]IB-KuE and 156.0 % of [^125I]IB-KuE and 171.7 % of [^125I]IB-KuE | 161.41%±8.88 | -3.26 | −3.02 and −3.06 and −3.07 and −2.86 and −3.39 and −3.33 and −3.34 and −3.20 and −3.40 and −3.41 and −3.48 and −3.49 and −3.32 and −3.45 and −3.53 and −3.43 and −3.56 and −3.03 and −3.08 | 3.17 nM and 2.91 nM and 5.35 nM and 5.74 nM and 4.59 nM and 4.45 nM | 4.37 nM | – | – | – | – | – | – | – | – | – | – | – | – |
| [^19F][^natGa]D/L-Dap-R/S-DOTAGA-rhPSMA7 [rhPSMA7-rac] | – | – | – | – | – | – | – | 96.80^ % | 3.20^ % | 96.48^ % | 3.52^ % | 93.92^# % and 74.15^# % | 96.47^ % | 4.15^ % | 98.55^ % and 95.85^ % | 1.55^ % and 4.15^ % | 94.04% and 94.58% | 5.96% and 5.42% | 82.51% and 96.2% |
